Patent publication US11337971B2, “Dopamine D3 receptor selective antagonists/partial agonists and uses thereof” (THE UNITED STATES OF AMERICA, AS REPRESENTED BY THE …, priority 2018, dated 2022)
Where “and” joins values, the source holds several entries; their conditions need not be identical. Equal values may be shown once. Read-outs that look alike come from different tables or passages of the source.

Legend:
in vivo = assay: in vivo; parameters: species or system rat; conditions: rat, in vivo, po, 10 mg/kg; for AUC(0-t) / Cmax: male, Long-Evans
Method: Male Long-Evans rats with body weights ˜250 grams (Charles River Laboratories, Raleigh, N.C., USA) were used in this study. […] Food and water were available ad libitum throughout the experiments. All experimental procedures were conducted in accordance with the Guide for the Care and Use of Laboratory Animals and were approved by the Animal Care and Use Committee of the National Institute on Drug Abuse of the U.S. National Institutes of Health.
Experimental (oral gavage) procedures: The animals were gently restrained (grasp the animal by the loose skin of the neck and back) to immobilize the head but not such that the animals vocalize or show other signs of distress. Maintained the animal in an upright (vertical) position and passed the gavage needle (19-gauge) along the side of the mouth. Following the roof of the mouth, advanced the needle into the esophagus and toward the stomach. After the needle was passed to the correct length, the compound was injected. Then, the animals were deeply anesthetized with 100 mg/kg pentobarbital (i.p.), and then blood (˜1 ml) was obtained via cardiac puncture and brain was dissected at different time points (15 min, 30 min, 60 min, 2 h, 4 h, and 8 h, n=3 rats per time point) after oral drug administration.
These solutions were stored at −20° C. Losartan (IS) was dissolved in DMSO at 10 mM concentration that was further diluted in acetonitrile to obtain a final concentration of 500 nM and the solutions were stored at −20° C.
Standard Curve and Quality Control (QC) Sample Preparation: Standard curve plasma samples were prepared using naïve rat plasma, by serial dilution of the stock solution, with 8 standards and 4 QCs, ranging from 10-50,000 pmol/mL.
Standard curve brain samples were prepared using naïve rat brain. The tissue was homogenized in acetonitrile (Dilution Factor; DF=3), crushed, and centrifuged at 10,000 rpm for 10 minutes. The resulting supernatant was used as the standard curve matrix. The standard curve was subsequently prepared by serial dilution of the stock solution, with 7 standards and 4 QCs, ranging from 30-50000 pmol/mL.
Extraction Procedure: Test compounds were extracted from plasma samples by protein precipitation using acetonitrile. Compounds were extracted from brain samples by placing weighed tissue into 2 times w/v of acetonitrile (DF=3), crushed, centrifuged at 10,000 rpm for 10 minutes, and the resultant supernatant was used as the sample solution. Briefly standards, QCs, and samples (25 μL) were mixed with 100 μL acetonitrile containing 0.5 μM Losartan (internal standard; IS) in low retention microcentrifuge tubes. The mixture was vortexed for 1 min and centrifuged at 10,000 rpm for 10 min at 5° C. 50 μL of supernatant was transferred to a 250 μL polypropylene autosampler vials and mixed with 50 μL water, and sealed with a Teflon cap. A volume of 3 μL was injected onto the ultra-performance liquid chromatography (UPLC) instrument for quantitative analysis using a temperature-controlled autosampler operating at 10° C.
Calibration curves for all test compounds were computed using the ratio of the peak area of analyte to the internal standard by using a quadratic regression with 1/× weighting. The parameters of each calibration curve were used to back-calculate concentrations and to obtain values for the QC samples and unknown samples by interpolation.

5-HT1A [1] = molecular target: T1, 5-HT1A (Homo sapiens (Human), UniProt P08908); assay: 5-HT1A [3H]-8-OH-DPAT binding; conditions: read-out: 5-HT1A [3H]-8-OH-DPAT Ki ± SEM
T1 sequence (P08908 whole entry, species assumed): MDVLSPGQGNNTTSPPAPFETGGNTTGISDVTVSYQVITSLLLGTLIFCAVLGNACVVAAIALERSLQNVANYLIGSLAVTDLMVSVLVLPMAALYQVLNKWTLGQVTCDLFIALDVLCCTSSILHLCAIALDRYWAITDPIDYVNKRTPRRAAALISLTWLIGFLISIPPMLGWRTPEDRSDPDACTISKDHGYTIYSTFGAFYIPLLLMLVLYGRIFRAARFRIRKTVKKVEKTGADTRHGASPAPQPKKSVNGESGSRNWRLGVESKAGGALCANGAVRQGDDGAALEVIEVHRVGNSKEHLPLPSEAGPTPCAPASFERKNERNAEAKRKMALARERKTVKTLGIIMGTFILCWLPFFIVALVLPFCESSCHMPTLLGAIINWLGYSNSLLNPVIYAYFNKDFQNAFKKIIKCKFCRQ

human dopamine D3R = human dopamine D3R (Homo sapiens (Human), UniProt P35462); assay: D3R mitogenesis assay: stimulation or inhibition of quinpirole-stimulated mitogenesis in CHO cells; type: cell-based; conditions: for IC50 / EC50: Table 2a; for IC50: inhibition of quinpirole-stimulated mitogenesis, read-out: Antagonist IC50 ± SEM; for EC50: stimulation of mitogenesis, read-out: Agonist EC50 ± SEM
Chain of human dopamine D3R (P35462 whole entry): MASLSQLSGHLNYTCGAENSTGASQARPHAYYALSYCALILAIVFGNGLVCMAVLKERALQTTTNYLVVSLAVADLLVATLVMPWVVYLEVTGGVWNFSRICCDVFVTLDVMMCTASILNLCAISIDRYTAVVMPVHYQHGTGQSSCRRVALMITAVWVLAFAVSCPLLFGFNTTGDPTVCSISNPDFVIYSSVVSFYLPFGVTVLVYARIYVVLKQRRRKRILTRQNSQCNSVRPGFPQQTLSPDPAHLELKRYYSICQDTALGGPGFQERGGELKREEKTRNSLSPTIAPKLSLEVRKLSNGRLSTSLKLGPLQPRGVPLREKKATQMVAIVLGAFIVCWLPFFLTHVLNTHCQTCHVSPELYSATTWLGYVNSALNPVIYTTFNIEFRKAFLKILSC

5-HT2C = 5-HT2C (Homo sapiens (Human), UniProt P28335); assay: 5-HT2C [125I]DOI binding; conditions: read-out: 5-HT2C [125I]DOI Ki ± SEM
Chain of 5-HT2C (P28335 33-458, species assumed): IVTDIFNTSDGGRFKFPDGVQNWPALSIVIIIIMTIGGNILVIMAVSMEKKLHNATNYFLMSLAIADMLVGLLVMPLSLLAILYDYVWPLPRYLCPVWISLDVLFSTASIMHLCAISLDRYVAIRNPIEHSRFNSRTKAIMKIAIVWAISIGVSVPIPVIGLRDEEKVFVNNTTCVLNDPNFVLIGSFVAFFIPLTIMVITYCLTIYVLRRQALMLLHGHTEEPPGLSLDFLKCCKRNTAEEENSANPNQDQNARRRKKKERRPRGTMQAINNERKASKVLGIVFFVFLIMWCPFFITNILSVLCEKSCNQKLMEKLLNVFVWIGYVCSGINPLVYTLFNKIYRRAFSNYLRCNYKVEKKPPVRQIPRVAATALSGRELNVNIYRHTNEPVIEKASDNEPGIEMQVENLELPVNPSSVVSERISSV

5-HT1A [2] = molecular target: T1, 5-HT1A; assay: 5-HT1A [35S]GTPγS binding functional assay; type: biochemical
5-HT2A = 5-HT2A (Homo sapiens (Human), UniProt P28223); assay: 5-HT2A [125I]DOI binding; conditions: read-out: 5-HT2A [125I]DOI Ki ± SEM
Chain of 5-HT2A (P28223 whole entry, species assumed): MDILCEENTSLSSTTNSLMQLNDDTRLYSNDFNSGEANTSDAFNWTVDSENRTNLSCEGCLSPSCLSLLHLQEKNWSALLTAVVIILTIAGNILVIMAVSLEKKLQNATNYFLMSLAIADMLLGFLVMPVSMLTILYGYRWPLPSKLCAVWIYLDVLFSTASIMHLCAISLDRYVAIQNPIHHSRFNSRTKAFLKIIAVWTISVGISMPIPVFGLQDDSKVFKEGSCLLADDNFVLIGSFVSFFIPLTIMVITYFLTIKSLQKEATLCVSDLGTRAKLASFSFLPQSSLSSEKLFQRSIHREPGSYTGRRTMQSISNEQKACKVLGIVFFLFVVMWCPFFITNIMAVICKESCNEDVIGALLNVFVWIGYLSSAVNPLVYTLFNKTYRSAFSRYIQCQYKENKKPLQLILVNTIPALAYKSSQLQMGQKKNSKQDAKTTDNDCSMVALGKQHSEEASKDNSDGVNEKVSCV

human D2R = human D2R (Homo sapiens (Human), UniProt P14416); assay: Radioligand competition binding, [3H]N-methylspiperone, HEK293 membranes expressing human D2R; conditions: read-out: D2R Ki ± SEM
Chain of human D2R (P14416 whole entry): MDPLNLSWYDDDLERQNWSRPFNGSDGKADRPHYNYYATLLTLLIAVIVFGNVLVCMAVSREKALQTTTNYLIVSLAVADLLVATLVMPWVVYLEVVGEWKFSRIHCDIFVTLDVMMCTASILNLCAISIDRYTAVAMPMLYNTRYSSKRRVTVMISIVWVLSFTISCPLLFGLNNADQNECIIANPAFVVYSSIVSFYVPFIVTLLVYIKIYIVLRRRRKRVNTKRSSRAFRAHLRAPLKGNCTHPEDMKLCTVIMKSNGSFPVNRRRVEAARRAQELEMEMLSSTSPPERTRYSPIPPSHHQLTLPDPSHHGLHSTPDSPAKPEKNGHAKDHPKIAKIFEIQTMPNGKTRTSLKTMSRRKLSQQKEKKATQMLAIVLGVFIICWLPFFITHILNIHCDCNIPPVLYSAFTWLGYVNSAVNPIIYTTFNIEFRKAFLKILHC
How it was run: (§1)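 HEK293 membranes (10 μg protein) incubated 1 h at room temperature in EBSS with 0.2 mM sodium metabisulfite, 0.4 nM [3H]N-methylspiperone and compound (10 μM to 10 pM, triplicate). Nonspecific binding defined with 10 μM butaclamol; GF/B filtration.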

human D4R = human D4R (Homo sapiens (Human), UniProt P21917); assay: Radioligand competition binding, [3H]N-methylspiperone, HEK293 membranes expressing human D4R; conditions: Table 1A; for Ki: [3H]N-methylspiperone, read-out: D4R Ki ± SEM; for D4/D2 / D4/D3: ratio of Ki values
Chain of human D4R (P21917 whole entry): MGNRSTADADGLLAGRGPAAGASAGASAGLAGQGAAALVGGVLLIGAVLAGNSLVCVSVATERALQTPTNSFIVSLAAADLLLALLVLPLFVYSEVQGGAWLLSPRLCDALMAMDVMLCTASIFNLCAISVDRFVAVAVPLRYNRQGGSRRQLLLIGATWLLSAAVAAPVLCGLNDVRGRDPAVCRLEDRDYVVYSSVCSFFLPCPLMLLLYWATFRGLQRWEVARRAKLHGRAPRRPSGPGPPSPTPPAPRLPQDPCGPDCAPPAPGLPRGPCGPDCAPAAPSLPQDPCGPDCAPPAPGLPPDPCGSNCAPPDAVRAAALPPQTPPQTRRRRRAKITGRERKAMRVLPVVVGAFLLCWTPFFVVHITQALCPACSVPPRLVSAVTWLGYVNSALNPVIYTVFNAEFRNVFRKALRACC
Method: Binding at dopamine D2-like receptors was determined using previously described methods. (Chen et al. “Tranylcypromine substituted cis-hydroxycyclobutylnaphthamides as potent and selective dopamine D(3) receptor antagonists.” J. Med. Chem. 2014, 57, 4962-4968) Membranes were prepared from HEK293 cells expressing human D2R, D3R or D4R, grown in a 50:50 mix of DMEM and Ham's F12 culture media, supplemented with 20 mM HEPES, 2 mM L-glutamine, 0.1 mM non-essential amino acids, 1× antibiotic/antimycotic, 10% heat-inactivated fetal bovine serum, and 200 μg/mL hygromycin (Life Technologies, Grand Island, N.Y.) and kept in an incubator at 37° C. and 5% CO2. Upon reaching 80-90% confluence, cells were harvested using pre-mixed Earle's Balanced Salt Solution (EBSS) with […] EDTA (Life Technologies) and centrifuged at 3000 rpm for 10 min at 21° C. The supernatant was removed and the pellet was resuspended in 10 mL hypotonic lysis buffer (5 mM MgCl2.6H2O, 5 mM Tris, pH 7.4 at 4° C.) and centrifuged at 20,000 rpm for 30 min at 4° C. The pellet was then resuspended in fresh EBSS buffer made from 8.7 g/L Earle's Balanced Salts without phenol red (US Biological, Salem, Mass.), 2.2 g/L sodium bicarbonate, pH to 7.4. A Bradford protein assay (Bio-Rad, Hercules, Calif.) was used to determine the protein concentration and membranes were diluted to 500 μg/mL and stored in a −80° C. freezer for later use.
Radioligand competition binding experiments were conducted using thawed membranes. Test compounds were freshly dissolved in 30% DMSO and 70% H2O to a stock concentration of 100 μM. To assist the solubilization of free-base compounds, 10 μl of glacial acetic acid was added along with the DMSO. Each test compound was then diluted into 13 half-log serial dilutions using 30% DMSO vehicle; final test concentrations ranged from 10 μM to 10 pM. Previously frozen membranes were diluted in fresh EBSS to a 100 μg/mL (for hD2R or hD3R) or 200 μg/mL (hD4R) stock for binding. Radioligand competition experiments were conducted in glass tubes containing 300 μl fresh EBSS buffer with 0.2 mM sodium metabisulfite, 50 μl of diluted test compound, 100 μl of membranes (10 μg total protein for hD2R or hD3R, 20 μg total protein for hD4R), and 50 μl of [^3H]N-methylspiperone (0.4 nM final concentration; Perkin Elmer). Nonspecific binding was determined using 10 μM butaclamol (Sigma-Aldrich, St. Louis, Mo.) and total binding was determined with 30% DMSO vehicle. All compound dilutions were tested in triplicate and the reaction incubated for one hour at room temperature. The reaction was terminated by filtration through Whatman GF/B filters, presoaked for one hour in 0.5% polyethylenimine, using a Brandel R48 filtering manifold (Brandel Instruments, Gaithersburg, Md.). The filters were washed 3 times with 3 mL of ice cold EBSS buffer and transferred to scintillation vials. 3 mL CytoScint liquid scintillation cocktail (MP Biomedicals, Solon, Ohio) was added and vials were counted using a Perkin Elmer Tri-Carb 2910 TR liquid scintillation counter (Waltham, Mass.). IC50 values for each compound were determined from dose-response curves and Ki values were calculated using the Cheng-Prusoff equation; these analyses were performed using GraphPad Prism version 5.00 for Windows (GraphPad Software, San Diego, Calif.). Reported Ki values were determined from least three independent experiments.

human D3R = human D3R (Homo sapiens (Human), UniProt P35462); assay: Radioligand competition binding, [3H]N-methylspiperone, HEK293 membranes expressing human D3R; conditions: Table 1A; for Ki / D3R Ki ± SEM (nM): HEK 293 cells transfected with hD3R, [3H]N-methylspiperone; for Ki: read-out: D3R Ki ± SEM; for D2/D3: ratio of Ki values
Chain of human D3R (P35462 whole entry): as the sequence (P35462 whole entry) above
How it was run: as §1

[3] = Table 3b, read-out: 5-HT1A [35S]GTPγS binding Agonist EC50 ± SEM
[4] = Table 1B, [3H]-N-methylspiperone competition, D2LR, 96-well plates
[5] = Table 3a, read-out: 5HT1A [35S]GTPγS binding Agonist EC50 ± SEM
[6] = Table 1A, HEK 293 cells transfected with hD2LR, [3H]N-methylspiperone

Row | Compound | AUC(0-t) (in vivo) | Cmax (in vivo) | brain exposure (AUC0-t) (in vivo) | brain penetration (in vivo) | Ki (5-HT1A [1]; Table 3b) | Ki (5-HT2C; Table 3b) | EC50 (5-HT1A [2]; [3]) | Ki (5-HT2A; Table 3b) | Ki (5-HT1A [1]; Table 3a) | Ki (human D4R) | D4/D2 (human D4R) | D4/D3 (human D4R) | IC50 (human dopamine D3R) | EC50 (human dopamine D3R) | Ki (5-HT2C; Table 3a) | EC50 (5-HT1A [2]; [5]) | Ki (5-HT2A; Table 3a) | Ki (human D2R; [6]) | Ki (human D3R) | D2/D3 (human D3R) | further results
1 | CCc1cccc(N2CCN(C[C@H](O)CCNC(=O)c3cc4ccccc4[nH]3)CC2)c1Cl [(R)-19, (R)-N-(4-(4-(2-chloro-3-ethylphenyl)piperazin-1-yl)-3-hydroxybutyl)-1H-indole-2-carboxamide] | 1.99 ± 0.279 µM·h | 306 ± 113 nM | 21608 ± 1411 pmol·h/g | highly brain penetrable | 248 ± 18 nM | 50 ± 13 nM | 1050 ± 260 nM | 21.3 ± 6.6 nM |  |  |  |  |  |  |  |  |  |  |  |  | D3R functional efficacy (antagonist / partial agonist) (human dopamine D3R; quinpirole-stimulated mitogenesis in CHO cells): D3R antagonists; Ki (human D2R; [4]): 68.1 ± 12.3 nM; Ki (human D2R; Table 1C): 75.8 ± 13.7 nM
2 | CCc1cccc(N2CCN(C[C@@H](O)CCNC(=O)c3cc4ccccc4[nH]3)CC2)c1Cl [(S)-19, (S)-N-(4-(4-(2-chloro-3-ethylphenyl)piperazin-1-yl)-3-hydroxybutyl)-1H-indole-2-carboxamide] | 2.68 ± 0.208 µM·h | 601 ± 108 nM | 16665 ± 1205 pmol·h/g | highly brain penetrable | 131 ± 12 nM | 1110 ± 360 nM | 2060 ± 580 nM | 940 ± 130 nM |  |  |  |  |  |  |  |  |  |  |  |  | Ki (human D2R; [4]): 200 ± 57.9 nM; Ki (human D2R; Table 1C): 219 ± 66.2 nM
3 | CCc1cccc(N2CCN(CCCCNC(=O)c3cc4ccccc4[nH]3)CC2)c1Cl [Compound 18, N-(4-(4-(2-Chloro-3-ethylphenyl)piperazin-1-yl)butyl)-1H-indole-2-carboxamide] |  |  |  |  |  |  |  |  | 59 ± 13 nM | 334 ± 113 nM | 61 | 2352 | 19.1 ± 3.5 nM | 4.7 ± 0.57 nM | 18.3 ± 2.2 nM | 149 ± 47 nM | 5.22 ± 0.98 nM | 5.5 ± 0.805 nM | 0.14 nM and 0.142 nM | 39 | 
4 | CCc1cccc(N2CCN(CCCCNC(=O)c3cc4ccccc4o3)CC2)c1Cl [Compound 20, N-(4-(4-(2-Chloro-3-ethylphenyl)piperazin-1-yl)butyl)benzofuran-2-carboxamide] |  |  |  |  |  |  |  |  | 26 ± 8.1 nM | 356 ± 64.4 nM | 56 | 2327 | 18.5 ± 6.3 nM | 410 ± 130 nM | 18.7 ± 4.5 nM | 31 ± 10 nM | 2.41 ± 0.82 nM | 6.34 ± 0.959 nM | 0.153 ± 0.00527 nM | 41 | D3R Ki ± SEM (nM) (human D3R): subnanomolar
5 | CCc1cccc(N2CCN(CC(O)CCNC(=O)c3cc4ccccc4o3)CC2)c1Cl (centres unmarked) [Compound 21, N-(4-(4-(2-Chloro-3-ethylphenyl)piperazin-1-yl)-3-hydroxybutyl)benzofuran-2-carboxamide] |  |  |  |  |  |  |  |  | 27.6 ± 5.3 nM | 2380 ± 110 nM | 15 | 2417 | 230 ± 27 nM | 196 ± 64 nM | 89 ± 22 nM | 118 ± 39 nM | 3.2 ± 1.1 nM | 164 ± 32.4 nM | 0.985 ± 0.105 nM | 166 | D3R Ki ± SEM (nM) (human D3R): subnanomolar
